Measurements taken from patent publication US9346815B2, “5-chloro-2-difluoromethoxyphenyl pyrazolopyrimidine compounds, compositions and methods of use thereof” (Genentech, Inc., priority 2014, dated 2016).
pEC50, pKi: −log10 of the molar value.

Columns and labels:
[1] = target: isolated recombinant JAK1 kinase domain (Homo sapiens (Human), UniProt P23458); test: JAK1 enzyme assay (Caliper LabChip, peptide phosphorylation); type: biochemical; settings: isolated recombinant JAK1 kinase domain, 25 μM ATP
[2] = target: isolated recombinant JAK2 kinase domain (Homo sapiens (Human), UniProt O60674); test: JAK2 enzyme assay (Caliper LabChip, peptide phosphorylation); type: biochemical; settings: 25 μM ATP
[3] = test system: JAK1-dependent STAT6 phosphorylation downstream of IL-13 stimulation in TF-1 human erythroleukemia cells; test: JAK1 pathway assay in TF-1 cells (IL-13-pSTAT6, MSD); type: cell-based; settings: Homo sapiens, TF-1, TF-1 cells, read-out: IL13-pSTAT6 EC50_TF-1
How it was run: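 BEAS-2B: complete growth medium, compound 1 hr at 37° C. TF-1: GM-CSF-starved overnight, serum-free OptiMEM, compound 30 min.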

Sequence of isolated recombinant JAK1 kinase domain (P23458 875-1153): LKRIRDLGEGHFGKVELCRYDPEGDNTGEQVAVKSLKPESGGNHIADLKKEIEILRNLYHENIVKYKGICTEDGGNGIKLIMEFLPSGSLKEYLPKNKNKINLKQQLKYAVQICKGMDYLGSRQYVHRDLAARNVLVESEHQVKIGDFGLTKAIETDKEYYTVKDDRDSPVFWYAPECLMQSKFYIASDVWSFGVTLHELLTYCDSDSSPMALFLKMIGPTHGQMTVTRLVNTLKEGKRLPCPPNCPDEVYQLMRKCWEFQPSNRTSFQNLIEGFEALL
Sequence of isolated recombinant JAK2 kinase domain (O60674 849-1124): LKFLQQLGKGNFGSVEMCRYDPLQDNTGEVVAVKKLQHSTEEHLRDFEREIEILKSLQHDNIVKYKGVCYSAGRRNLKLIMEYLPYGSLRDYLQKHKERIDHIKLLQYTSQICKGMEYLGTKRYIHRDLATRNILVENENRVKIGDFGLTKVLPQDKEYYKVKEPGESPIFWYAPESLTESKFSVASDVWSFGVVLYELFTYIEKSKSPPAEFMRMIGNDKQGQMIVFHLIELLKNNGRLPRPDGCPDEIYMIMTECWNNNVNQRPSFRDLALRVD

| Compound | pKi [1] | pKi [2] | pEC50 [3] |
| --- | --- | --- | --- |
| CN1CCN(CCCN2CCC(n3cc(NC(=O)c4cnn5cccnc45)c(-c4cc(Cl)ccc4OC(F)F)n3)CC2)C1=O [Example 154, N-[3-[5-chloro-2-(difluoromethoxy)phenyl]-1-[1-[3-(3-methyl-2-oxo-imidazolidin-1-yl)propyl]-4-piperidyl]pyrazol-4-yl]pyrazolo[1,5-a]pyrimidine-3-carboxamide] | 8.85 | 9.64 | 8.57 |
| O=C(Nc1cn(CC(=O)N2C[C@H]3CNC[C@H]3C2)nc1-c1cc(Cl)ccc1OC(F)F)c1cnn2cccnc12 [Example 4, Cis-pyrazolo[1,5-a]pyrimidine-3-carboxylic acid {3-(5-chloro-2-difluoromethoxyphenyl)-1-[2-(hexahydropyrrolo[3,4-c]pyrrol-2-yl)-2-oxoethyl]-1H-pyrazol-4-yl}amide] | 9.18 | 9.10 | 6.26 |
| NC(=O)CCCN1CCC(n2cc(NC(=O)c3c(N)nn4cccnc34)c(-c3cc(Cl)ccc3OC(F)F)n2)CC1 [Example 162, 2-amino-N-[1-[1-(4-amino-4-oxo-butyl)-4-piperidyl]-3-[5-chloro-2-(difluoromethoxy)phenyl]pyrazol-4-yl]pyrazolo[1,5-a]pyrimidine-3-carboxamide] | 9.23 | 9.74 | 7.81 |
| CN1C[C@@H]2CN(C(=O)c3nc(-c4cc(Cl)ccc4OC(F)F)c(NC(=O)c4cnn5cccnc45)s3)C[C@@H]2C1 [Example 264, Pyrazolo[1,5-a]pyrimidine-3-carboxylic acid [4-(5-chloro-2-difluoromethoxy-phenyl)-2-(5-methyl-hexahydro-pyrrolo[3,4-c]pyrrole-2-carbonyl)-thiazol-5-yl]-amide] | 8.57 | 8.62 | 7.70 |
| CN(CCOc1ccc(Cl)cc1)C1CCN(C(=O)Cn2cc(NC(=O)c3cnn4cccnc34)c(-c3cc(Cl)ccc3OC(F)F)n2)CC1 [Example 107, N-[3-[5-chloro-2-(difluoromethoxy)phenyl]-1-[2-[4-[2-(4-chlorophenoxy)ethyl-methyl-amino]-1-piperidyl]-2-oxo-ethyl]pyrazol-4-yl]pyrazolo[1,5-a]pyrimidine-3-carboxamide] | 9.01 | 8.60 | 7.75 |

Other lines, results leading:

| pKi [1] | pKi [2] | pEC50 [3] | Compound |
| --- | --- | --- | --- |
| 9.26 | 9.06 | 8.18 | CC1(CN2C[C@@H]3CN(C(=O)Cn4cc(NC(=O)c5cnn6cccnc56)c(-c5cc(Cl)ccc5OC(F)F)n4)C[C@@H]3C2)COC1 [Example 39, N-[1-[2-[(3aR,6aS)-2-[(3-methyloxetan-3-yl)methyl]-1,3,3a,4,6,6a-hexahydropyrrolo[3,4-c]pyrrol-5-yl]-2-oxo-ethyl]-3-[5-chloro-2-(difluoromethoxy)phenyl]pyrazol-4-yl]pyrazolo[1,5-a]pyrimidine-3-carboxamide] |
| 9.15 | 9.07 | 7.09 | O=C(Nc1cn(CC(=O)N2C[C@H]3CN(CC4CCN(C(=O)OCc5ccccc5)CC4)C[C@H]3C2)nc1-c1cc(Cl)ccc1OC(F)F)c1cnn2cccnc12 [Example 17, benzyl 4-[[(3aR,6aS)-5-[2-[3-[5-chloro-2-(difluoromethoxy)phenyl]-4-(pyrazolo[1,5-a]pyrimidine-3-carbonylamino)pyrazol-1-yl]acetyl]-1,3,3a,4,6,6a-hexahydropyrrolo[3,4-c]pyrrol-2-yl]methyl]piperidine-1-carboxylate] |
| 9.24 | 9.15 | 8.09 | O=C(Nc1cn(CC(=O)N2C[C@H]3CN(CC4(O)CCCCC4)C[C@H]3C2)nc1-c1cc(Cl)ccc1OC(F)F)c1cnn2cccnc12 [Example 46, N-[1-[2-[(3aS,6aR)-2-[(1-hydroxycyclohexyl)methyl]-1,3,3a,4,6,6a-hexahydropyrrolo[3,4-c]pyrrol-5-yl]-2-oxo-ethyl]-3-[5-chloro-2-(difluoromethoxy)phenyl]pyrazol-4-yl]pyrazolo[1,5-a]pyrimidine-3-carboxamide] |
